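Briefly, cells in 96-well plates were exposed to five compound concentrations for 48 h, and endpoints were estimated by linear interpolation. GI50 marks 50% less growth.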 Calls of active or inactive are those of the source. Rule as the data show it: active = GI50 up to about 1.1 µM and inactive = higher.
How the values were obtained:
Assay in all cases: NCI-60 cell line screen, 48 h
[1] = system: MOLT-4
[2] = system: KM12
[3] = system: U-251
[4] = system: IGROV-1
[5] = system: EKVX
[6] = system: SF-295
[7] = system: MCF7
[8] = system: SN12C
[9] = system: BT-549
[10] = system: K562
[11] = system: Malme-3M
[12] = system: HOP-62
[13] = system: SK-MEL-28
[14] = system: M14
[15] = system: SK-OV-3
[16] = system: T47D
[17] = system: OVCAR-5
[18] = system: MDA-MB-435
[19] = system: MDA-MB-231
[20] = system: SK-MEL-2

Measured: GI50

COc1cc(O)cc(O)c1C(=O)CC(Cl)(Cl)Cl
inactive: [1] > 100 µM | [2] > 100 µM | [3] > 100 µM | [4] > 100 µM | [5] > 100 µM | [6] > 100 µM | [7] > 100 µM | [8] > 100 µM | [9] > 100 µM | [10] > 100 µM | [11] > 100 µM | [12] > 100 µM | [13] > 100 µM | [14] > 100 µM | [15] > 100 µM | [16] > 100 µM | [17] > 100 µM | [18] > 100 µM | [19] > 100 µM

CCOC(=O)[C@H]1O[C@@H]1C(=O)NC(CC(C)C)C(=O)NCCC(C)C (stereo partly drawn)
inactive: [1] > 100 µM | [2] > 100 µM | [3] > 100 µM | [4] > 100 µM | [5] > 100 µM | [6] > 100 µM | [7] > 100 µM | [8] > 100 µM | [9] > 100 µM | [10] > 100 µM | [11] > 100 µM | [12] > 100 µM | [13] > 100 µM | [14] > 100 µM | [15] > 100 µM | [16] > 100 µM | [17] > 100 µM | [18] > 100 µM | [19] > 100 µM

COc1ccc2c(c1OC)C(=O)N/C2=C\c1c(CCN(C)C)cc2c(c1OC)OCO2
inactive: [1] > 100 µM | [2] > 100 µM | [3] > 100 µM | [4] 38.6 µM | [5] > 100 µM | [6] 43.7 µM | [7] > 100 µM | [8] > 100 µM | [9] > 100 µM | [10] 68.7 µM | [11] 62.8 µM | [12] > 100 µM | [13] > 100 µM | [14] > 100 µM | [15] > 100 µM | [16] 27.9 µM | [17] > 100 µM | [18] 31.5 µM | [19] 41.1 µM

COc1cc(OC)c(OC)cc1/C=C/c1ccc2ccccc2n1
inactive: [1] 3.78 µM | [2] 7.85 µM | [3] > 10 µM | [4] > 10 µM | [6] 9.71 µM | [7] 9.57 µM | [8] > 10 µM | [9] 8.89 µM | [10] 5.33 µM | [11] > 10 µM | [12] > 10 µM | [13] > 10 µM | [14] > 10 µM | [15] > 10 µM | [16] 6.97 µM | [17] > 10 µM | [18] 7.23 µM | [19] > 10 µM

O=C(O)CCC(NC(=O)c1ccc(Oc2nc3ccccc3nc2C(=O)O)cc1)C(=O)O (stereo not drawn)
inactive: [1] > 100 µM | [2] > 100 µM | [3] > 100 µM | [4] > 100 µM | [5] > 100 µM | [6] > 100 µM | [9] 33.3 µM | [10] > 100 µM | [11] > 100 µM | [12] > 100 µM | [13] > 100 µM | [14] > 100 µM | [15] > 100 µM | [16] > 100 µM | [17] > 100 µM | [20] > 100 µM | [18] > 100 µM | [19] > 100 µM

Cc1ccc(NC(=O)CC(=O)N2N=C(N(c3ccccc3)c3ccccc3)CC2c2ccccc2)cc1 (stereo not drawn)
inactive: [1] > 100 µM | [2] > 100 µM | [3] > 100 µM | [4] > 100 µM | [5] > 100 µM | [6] > 100 µM | [7] > 100 µM | [9] > 100 µM | [10] > 100 µM | [12] > 100 µM | [13] > 100 µM | [14] > 100 µM | [15] > 100 µM | [16] > 100 µM | [17] > 100 µM | [20] > 100 µM | [18] > 100 µM | [19] > 100 µM

COc1ccc(-c2cc(C3CC3)nc(SCC(=O)O)c2C#N)cc1
inactive: [1] 60.3 µM | [2] > 100 µM | [3] 58.9 µM | [4] > 100 µM | [5] > 100 µM | [6] 60.3 µM | [7] 94.4 µM | [8] > 100 µM | [9] > 100 µM | [10] 64.3 µM | [12] > 100 µM | [13] > 100 µM | [14] > 100 µM | [15] 56.2 µM | [16] > 100 µM | [17] > 100 µM | [20] > 100 µM | [18] > 100 µM | [19] > 100 µM

CCOC(=O)c1nc2ccc(C(F)(F)F)cc2[nH]c1=O
inactive: [1] > 100 µM | [2] > 100 µM | [3] > 100 µM | [4] > 100 µM | [6] > 100 µM | [7] > 100 µM | [8] > 100 µM | [9] > 100 µM | [10] > 100 µM | [12] > 100 µM | [13] > 100 µM | [14] > 100 µM | [15] > 100 µM | [16] > 100 µM | [17] > 100 µM | [20] > 100 µM | [18] > 100 µM | [19] > 100 µM

— ChEMBL document CHEMBL1201862, “PubChem BioAssay data set” (2004)
